Assay results reported in patent US8093273B2, “Flavanoids and isoflavanoids for the prevention and treatment of cardiovascular diseases” (Resverlogix Corp., priority 2004, dated 2012).
Structures can show the parent of a compound that is named as a salt.

What was measured:
human ApoA-I promoter = assay: ApoA-I promoter induction in Caco-2 intestinal cells (pAI.474-Luc luciferase reporter); type: cell-based; settings: Caco-2 cells, 15 μM, 48 hours incubation, luciferase activity vs control samples
Protocol: To examine the effects of compounds of the invention to increase ApoA-I expression, Caco-2 cells, an intestinal cell line derived from human epithelial intestinal cells, were grown under conditions recommended by the ATCC and summarized in United States Patent Application Publication No. 20040033480 (“Wong”), incorporated herein by reference.
Briefly, the promoter region of the gene encoding human ApoA-I was isolated and ligated upstream of the firefly luciferase gene to construct the reporter plasmid pAI.474-Luc. This reporter plasmid and pRSV-β-galactosidase (as a control for transfection efficiency) were co-transfected to Caco-2 cells. The Caco-2 cells were then incubated in a MEM selection media containing 20% fetal calf serum supplemented with G418 (final concentration: 0.5 mg/mL, Gibco) to give established strains that stably express from the reporter gene. The strains were seeded in 6-well culture plates and incubated for 48 hours at 37° C. under 5% carbon dioxide. Cells were starved for 24 hrs in MEM selection media containing 0.5% FBS. Then, a solution of a compound of the invention in DMSO or other appropriate solvent was added to the wells at a final concentration of 0 to 100 μM in MEM selection media containing 0.5% FBS.
After further incubation for 48 hours, the cells were harvested and lysed using Reporter Lysis Buffer (PROMEGA E3971), and 50 μL of luciferase assay reagent (PROMEGA E4550 Luciferase Reporter 1000 assay system) was added to measure luciferase activity with a luminometer (Fluoroskan Ascent FL from Thermo electron Corporation). Luciferase activity was normalized to lysate protein concentrations, measured using Bradford Reagent (BioRad Protein Assay reagent Cat #500-0006). The luciferase activity of cells treated with various concentrations of test compounds was compared to that of solvent control sample (i.e., solvent without any compound of the present invention added) and untreated control sample.

Row | SMILES | melting point [°C] | ApoA-I Promoter Induction (human ApoA-I promoter)
1 | COc1ccc(-c2cc(=O)c3c(F)cc(F)cc3o2)cc1 [Example 1, 5,7-Difluoro-2-(4-methoxy-phenyl)-chromen-4-one] |  | no increase
2 | O=c1cc(-c2ccc(O)cc2)oc2ccccc12 [2-(4-Hydroxyphenyl)-chromen-4-one, 2-(4-Hydroxy-phenyl)-chromen-4-one, reference compound] |  | increased
3 | O=c1cc(-c2ccc(O)cc2)oc2cc(F)cc(F)c12 [Example 2, 5,7-Difluoro-2-(4-hydroxyphenyl)-4H-chromen-4-one] |  | increased
4 | Cl.Nc1cccc2c(=O)cc(-c3ccc(O)c(F)c3)oc12 | 256.4 to 258.5 | 
5 | COc1ccc(-c2cc(=O)c3ccccc3o2)cc1 [Example 4, 2-(4-Methoxy-phenyl)-4H-chromen-4-one] |  | increased
6 | O=c1cc(-c2ccccc2)oc2cccc(O)c12 [5-Hydroxy-2-phenyl-4H-chromen-4-one, 5-Hydroxy-2-phenyl-chromen-4-one, reference compound] |  | increased
7 | O=c1cc(-c2ccc(O)cc2)[nH]c2cc(O)cc(O)c12 [Example 50, 5,7-Dihydroxy-2-(4-hydroxyphenyl)-quinolin-4(H)-one] |  | increased
8 | Oc1ccc(-c2ccc3ccccc3c2)cc1 [Example 65, 4-Naphthalen-2-yl-phenol] |  | increased
9 | COc1cc(-c2cc(=O)c3ccccc3o2)ccc1O [2-(4-hydroxy-3-methoxyphenyl)-4H-chromen-4-one, reference compound] |  | increased
10 | CC(=O)Nc1cc(O)ccc1-c1cc(=O)c2ccccc2o1 [Example 8, N-[5-Hydroxy-2-(4-oxo-4H-chromen-2-yl)-phenyl]acetamide] | 253 to 255 | 
11 | O=c1cc(-c2ccc(O)cc2)oc2cc(O)ccc12 [7-Hydroxy-2-(4-hydroxy-phenyl)-chromen-4-one, reference compound] |  | increased
12 | O=c1cc(-c2ccc(O)cc2)oc2cc[n+]([O-])cc12 [Example 32, 2-(4-Hydroxyphenyl)-4-oxo-4H-pyrano[3,2-c]pyridine 6-oxide] |  | no increase
13 | O=c1cc(-c2ccccc2)oc2cc(O)ccc12 [7-Hydroxy-2-phenyl-4H-chromen-4-one, 7-hydroxy-2-phenyl-4H-chromen-4-one, reference compound] |  | increased
14 | O=c1cc(-c2ccc(O)cc2)oc2cccc(O)c12 [5-Hydroxy-2-(4-hydroxy-phenyl)-chromen-4-one, reference compound] |  | increased
15 | O=c1cc(-c2ccccc2)oc2ccccc12 [2-Phenyl-4H-chromen-4-one, 2-phenyl-4H-chromen-4-one, reference compound] |  | increased
16 | O=c1cc(-c2ccc(C[n+]3ccccc3)cc2)oc2ccc(O)cc12.[Cl-] | 243 to 247 | 
17 | O=c1cc(-c2cccc(O)c2)oc2ccccc12 [2-(3-Hydroxyphenyl)-4H-chromen-4-one, 2-(3-hydroxyphenyl)-4H-chromen-4-one, reference compound] |  | increased
18 | O=c1cc(-c2ccc(O)cc2)oc2c(O)cccc12 [Example 5, 8-Hydroxy-2-(4-hydroxy-phenyl)-4H-chromen-4-one] |  | increased
19 | O=c1c(-c2ccc(O)cc2)coc2cc(O)cc(O)c12 [5,7-dihydroxy-3-(4-hydroxyphenyl)-4H-chromen-4-one, reference compound] |  | increased
20 | N=C(N)NCCCC(N)C(=O)Oc1ccc(-c2cc(=O)c3ccccc3o2)cc1 (stereo not shown) [Example 76, 2-Amino-5-guanidino-pentanoic acid 4-(4-oxo-4H-chromen-2-yl)phenyl ester trihydrochloride] |  | increased
21 | O=c1cc(-c2ccc(O)cc2)oc2ccc(O)cc12 [6-hydroxy-2-(4-hydroxyphenyl)-4H-chromen-4-one, reference compound] |  | increased

The next lines start with results.

Row | melting point [°C] | SMILES | ApoA-I Promoter Induction (human ApoA-I promoter)
22 | 234 to 235 | O=c1c(CO)c(-c2ccc(O)cc2)oc2ccccc12 [Example 22, 3-(Hydroxymethyl)-2-(4-hydroxyphenyl)-4H-chromen-4-one] | 
23 | 182 to 184 | Cn1c(-c2ccc(O)c(F)c2)cc2ncccc2c1=O [Example 56, 7-(3-Fluoro-4-hydroxyphenyl)-6-methyl-1,6-naphthyridin-5(6H)-one] | no increase
24 | 289 to 291 | COc1cccc2c(=O)[nH]c(-c3ccc(O)c(F)c3)cc12 [Example 59, 3-(3-Fluoro-4-hydroxyphenyl)-5-methoxyisoguinolin-1(2H)-one] | increased
25 | 296 to 298 | N#Cc1ccc2oc(-c3ccc(O)cc3)cc(=O)c2c1 [Example 23, 2-(4-Hydroxyphenyl)-4-oxo-4H-chromene-6-carbonitrile] | 
26 | 236.2 to 238.5 | CC(=O)Oc1ccc(-c2cc(=O)c3cc(Br)cc([N+](=O)[O-])c3o2)cc1F [Example 25, 4-(6-Bromo-8-nitro-4-oxo-4H-chromen-2-yl)-2-fluorophenyl acetate] | increased
27 | 222 to 224 | O=C1C=C(c2ccc(O)cc2)S(=O)(=O)c2ccccc21 [Example 66, 2-(4-Hydroxy-phenyl)-1,1-dioxo-1H-1λ^6-thiochromen-4-one] | 
28 | 271.5 to 272.3 | CN(C)Cc1c(-c2ccc(O)cc2)oc2ccccc2c1=O.Cl [Example 20, 3-((Dimethylamino)methyl)-2-(4-hydroxyphenyl)-4H-chromen-4-one hydrochloride] | no increase
29 | 99 to 102 | CN(C)Cc1ccc2oc(-c3ccc(O)cc3)cc(=O)c2c1 [Example 28, 6-((Dimethylamino)methyl)-2-(4-hydroxyphenyl)-4H-chromen-4-one] | 
30 | 277 to 279 | O=c1cc(-c2ccc(O)cc2[N+](=O)[O-])oc2ccccc12 [Example 10, 2-(4-Hydroxy-2-nitrophenyl)chromen-4-one] | 
31 | 273 to 275 | O=c1nc(-c2ccc(O)cc2)oc2ccccc12 [Example 67, 2-(4-Hydroxyphenyl)benzo[e][1,3]oxazin-4-one] | increased
32 | 273.5 to 274.9 | O=c1cc(-c2ccc(O)c(Br)c2)oc2ccccc12 [Example 19, 2-(3-Bromo-4-hydroxyphenyl)-4H-chromen-4-one] | increased
33 | 168 to 169 | Oc1ccc(-c2ccc3ccccc3c2)nc1 [Example 68, 6-Naphthalen-2-yl-pyridin-3-ol] | 
34 | 237 to 238 | O=c1c(-c2ccc(O)cc2)coc2ccccc12 [Example 84, 3-(4-Hydroxyphenyl)-4H-chromen-4-one] | increased
35 | 281 to 283 | COc1cccc2c(=O)cc(-c3ccc(O)cc3)oc12 [Example 17, 2-(4-Hydroxyphenyl)-8-methoxy-4H-chromen-4-one] | increased
36 | 262 to 264 | O=c1c(-c2ccc(O)cc2)coc2ncccc12 [Example 85, 3-(4-Hydroxyphenyl)-4H-pyrano[2,3-b]pyridine-4-one] | increased
37 | 167 to 169 | CC(=O)Oc1ccc(-c2cc(=O)c3cccnc3o2)cc1 [Example 75, 4-(4-Oxo-4H-pyrano[2,3-b]pyridine-2-yl)phenyl acetate] | increased
38 | 237 to 239 | COCc1c(-c2ccc(O)cc2)oc2ccccc2c1=O [Example 26, 2-(4-Hydroxyphenyl)-3-(methoxymethyl)-4H-chromen-4-one] | increased
39 | 123 to 125 | CC(=O)Oc1ccc(C2=COc3ccccc3O2)cc1 [Example 77, 4-(Benzo[b][1,4]dioxin-2-yl)phenyl acetate] | increased
40 | 261 to 263 | O=c1cc(-c2ccc([N+](=O)[O-])cc2)oc2ncccc12 [Example 80, 2-(4-Nitrophenyl)-4H-pyrano[2,3-b]pyridine-4-one] | no increase
41 | 299 to 301 | O=c1cc(-c2ccc(O)cc2)oc2c([N+](=O)[O-])cccc12 [Example 16, 2-(4-Hydroxyphenyl)-8-nitro-4H-chromen-4-one] | 
42 | 84 to 86 | CC(=O)Oc1ccc(C2=CC(C)(C)c3ccccc3O2)cc1 [Example 69, 4-(4,4-Dimethyl-4H-chromen-2-yl)phenyl acetate] | increased
43 | 287 to 289 | O=c1cc(-c2ccc(O)cc2F)oc2ccccc12 [Example 15, 2-(2-Fluoro-4-hydroxyphenyl)chromen-4-one] | 
44 | 185 to 187 | CNc1nc(-c2ccc(O)c(F)c2)cc2c(OC)cccc12 [Example 58, 2-Fluoro-4-(5-methoxy-1-(methylamino)isoquinolin-3-yl)phenol] | 
